Assay results as given in ChEMBL document CHEMBL2396640, “Exploring DOXP-reductoisomerase binding limits using phosphonated N-aryl and N-heteroarylcarboxamides as DXR inhibitors” (Bioorg Med Chem, 2013).
Active and inactive are the calls of the source. The calls are words filed in the database; no cut-off is given here.

Columns and labels:
[1] = test system: Escherichia coli; assay: Inhibition of Escherichia coli DXR using DOXP as substrate assessed as conversion of NADPH to NADP at 250 uM preincubated for 5 mins measured after 10 mins relative to control
[2] = test system: Plasmodium falciparum; assay: Activation of Plasmodium falciparum DXR using DOXP as substrate assessed as conversion of NADPH to NADP at 250 uM preincubated for 5 mins relative to control
[3] = test system: Escherichia coli; assay: Inhibition of Escherichia coli DXR using DOXP as substrate assessed as conversion of NADPH to NADP at 250 uM preincubated for 5 mins relative to control
[4] = test system: Escherichia coli; assay: Activation of Escherichia coli DXR using DOXP as substrate assessed as conversion of NADPH to NADP at 500 uM preincubated for 5 mins
[5] = test system: Escherichia coli; assay: Binding affinity to Escherichia coli DXR at 20 uM by STD-NMR analysis
[6] = test system: Escherichia coli; assay: Inhibition of Escherichia coli DXR using DOXP as substrate assessed as conversion of NADPH to NADP at 500 uM preincubated for 5 mins
[7] = test system: Plasmodium falciparum; assay: Inhibition of Plasmodium falciparum DXR using DOXP as substrate assessed as conversion of NADPH to NADP at 250 uM preincubated for 5 mins relative to control
[8] = test system: Escherichia coli; assay: Activation of Escherichia coli DXR using DOXP as substrate assessed as conversion of NADPH to NADP at 250 uM preincubated for 5 mins

Structure (SMILES): CCOP(=O)(CCCC(=O)Nc1cccc(O)c1)OCC
- inhibition [1]: 0.8%

Structure (SMILES): CCOP(=O)(CC(=O)Nc1cccc(OC)c1)OCC
- Activity [2]: Active
- inhibition [3]: 11%

Structure (SMILES): CCOP(=O)(CCC(=O)Nc1ccccn1)OCC
- Activity [4]: Active
- Activity [5]: Active

Structure (SMILES): CCOP(=O)(CC(=O)Nc1ccccn1)OCC
- inhibition [6]: 58.5%
- Activity [5]: Active

Structure (SMILES): CCOP(=O)(CC(=O)Nc1cccc(Br)c1)OCC
- Activity [2]: Active
- inhibition [3]: 16.3%
- inhibition [1]: 21.4%

Structure (SMILES): CCOP(=O)(CC(=O)Nc1ccon1)OCC
- inhibition [6]: 11.7%
- Activity [5]: Active

Structure (SMILES): CCOP(=O)(CCC(=O)Nc1nc(C)c(C(C)=O)s1)OCC
- inhibition [6]: 0.3%
- Activity [5]: Active

Structure (SMILES): CCOP(=O)(CCC(=O)Nc1ccon1)OCC
- inhibition [6]: 0%
- Activity [5]: Active

Structure (SMILES): O=C(CP(=O)(O)O)Nc1ccon1
- inhibition [6]: 12.2%
- Activity [5]: Active

Structure (SMILES): N#Cc1cccc(NC(=O)CP(=O)(O)O)c1
- Activity [2]: Active
- inhibition [3]: 8.2%
- inhibition [1]: 20%

Structure (SMILES): O=C(CCP(=O)(O)O)NCc1ccco1
- inhibition [6]: 0.3%
- Activity [5]: Active

Structure (SMILES): O=C(CCCP(=O)(O)O)Nc1cccc(O)c1
- inhibition [1]: 0.7%

Structure (SMILES): O=C(CP(=O)(O)O)Nc1ccccn1
- Activity [4]: Active
- Activity [5]: Active

Structure (SMILES): CCOP(=O)(CC(=O)Nc1cccc(C#N)c1)OCC
- inhibition [7]: 4.8%
- inhibition [3]: 21.9%
- inhibition [1]: 11.9%

Structure (SMILES): CCOP(=O)(CCCCC(=O)Nc1cccc(O)c1)OCC
- Activity [8]: Active

Structure (SMILES): CCOP(=O)(CC(=O)Nc1nccs1)OCC
- inhibition [6]: 28.9%
- Activity [5]: Active

Structure (SMILES): N#Cc1cccc(NC(=O)CCCP(=O)(O)O)c1
- Activity [5]: inactive

Structure (SMILES): COc1cccc(NC(=O)CCP(=O)(O)O)c1
- Activity [2]: Active
- Activity [8]: Active
- inhibition [3]: 8.7%

Structure (SMILES): CCOP(=O)(CCC(=O)Nc1cccc(OC)c1)OCC
- Activity [2]: Active
- inhibition [3]: 23.3%
- inhibition [1]: 14.1%

Structure (SMILES): O=C(CP(=O)(O)O)Nc1cccc(Br)c1
- inhibition [7]: 42%
- inhibition [3]: 22.3%
- inhibition [1]: 26.8%

Structure (SMILES): CCOP(=O)(CC(=O)Nc1nc(C)c(C(C)=O)s1)OCC
- inhibition [6]: 21.6%
- Activity [5]: Active

Structure (SMILES): CC(=O)c1sc(NC(=O)CP(=O)(O)O)nc1C
- inhibition [6]: 16.6%
- Activity [5]: Active

Structure (SMILES): O=C(CCP(=O)(O)O)Nc1ccon1
- inhibition [6]: 0.2%
- Activity [5]: Active

Structure (SMILES): CCOP(=O)(CC(=O)Nc1cccc(O)c1)OCC
- inhibition [7]: 12%
- inhibition [3]: 44.6%
- inhibition [1]: 24.4%

Structure (SMILES): O=C(CCCCP(=O)(O)O)Nc1cccc(O)c1
- Activity [8]: Active
- Activity [5]: inactive

Structure (SMILES): CCOP(=O)(CCC(=O)Nc1cccc(O)c1)OCC
- Activity [2]: Active
- inhibition [3]: 23.1%
- inhibition [1]: 33.5%

Structure (SMILES): O=C(CP(=O)(O)O)NCc1ccco1
- inhibition [6]: 30%
- Activity [5]: Active

Structure (SMILES): O=C(CCP(=O)(O)O)Nc1cccc(O)c1
- inhibition [7]: 1.1%
- inhibition [3]: 23.7%
- inhibition [1]: 49.2%

Structure (SMILES): CCOP(=O)(CCCCC(=O)Nc1cccc(OC)c1)OCC
- Activity [8]: Active

Structure (SMILES): CCOP(=O)(CC(=O)NCc1ccco1)OCC
- inhibition [6]: 67.7%
- Activity [5]: Active

Structure (SMILES): CCOP(=O)(CCCC(=O)Nc1cccc(Br)c1)OCC
- Activity [8]: Active

Structure (SMILES): O=C(CCCCP(=O)(O)O)Nc1cccc(Br)c1
- Activity [8]: Active
- Activity [5]: inactive

Structure (SMILES): COc1cccc(NC(=O)CP(=O)(O)O)c1
- inhibition [7]: 40.8%
- inhibition [3]: 31.9%
- inhibition [1]: 17.8%

Structure (SMILES): CCOP(=O)(CCC(=O)NCc1ccco1)OCC
- inhibition [6]: 0.2%
- Activity [5]: Active

Structure (SMILES): O=C(CCP(=O)(O)O)Nc1ccccn1
- inhibition [6]: 0%
- Activity [5]: Active

Structure (SMILES): O=C(CCP(=O)(O)O)Nc1nccs1
- inhibition [6]: 0.2%
- Activity [5]: Active

Structure (SMILES): O=C(CCP(=O)(O)O)Nc1cccc(CO)c1
- inhibition [7]: 10.9%
- inhibition [3]: 16%
- inhibition [1]: 26.8%

Structure (SMILES): CCOP(=O)(CCC(=O)Nc1nccs1)OCC
- inhibition [6]: 0.1%
- Activity [5]: Active

Structure (SMILES): O=C(CP(=O)(O)O)Nc1cccc(O)c1
- inhibition [7]: 45.2%
- inhibition [3]: 34.4%
- inhibition [1]: 43.9%

Structure (SMILES): O=C(CP(=O)(O)O)Nc1nccs1
- inhibition [6]: 7.4%
- Activity [5]: Active

Structure (SMILES): CCOP(=O)(CC(=O)Nc1cccc(CO)c1)OCC
- inhibition [7]: 40.7%
- inhibition [3]: 40.4%

Structure (SMILES): COc1cccc(NC(=O)CCCCP(=O)(O)O)c1
- Activity [8]: Active

Structure (SMILES): CC(=O)c1sc(NC(=O)CCP(=O)(O)O)nc1C
- inhibition [6]: 0%
- Activity [5]: Active

Structure (SMILES): CCOP(=O)(CCC(=O)Nc1cccc(CO)c1)OCC
- Activity [2]: Active
- inhibition [3]: 17.1%
- inhibition [1]: 17.9%
